# Biological target: ROCK2 (human) (UniProt O75116)
# Assay: Inhibition of ROCK2 Kinase Activity
# Sequence of ROCK2 (human) (O75116 whole entry, looked up): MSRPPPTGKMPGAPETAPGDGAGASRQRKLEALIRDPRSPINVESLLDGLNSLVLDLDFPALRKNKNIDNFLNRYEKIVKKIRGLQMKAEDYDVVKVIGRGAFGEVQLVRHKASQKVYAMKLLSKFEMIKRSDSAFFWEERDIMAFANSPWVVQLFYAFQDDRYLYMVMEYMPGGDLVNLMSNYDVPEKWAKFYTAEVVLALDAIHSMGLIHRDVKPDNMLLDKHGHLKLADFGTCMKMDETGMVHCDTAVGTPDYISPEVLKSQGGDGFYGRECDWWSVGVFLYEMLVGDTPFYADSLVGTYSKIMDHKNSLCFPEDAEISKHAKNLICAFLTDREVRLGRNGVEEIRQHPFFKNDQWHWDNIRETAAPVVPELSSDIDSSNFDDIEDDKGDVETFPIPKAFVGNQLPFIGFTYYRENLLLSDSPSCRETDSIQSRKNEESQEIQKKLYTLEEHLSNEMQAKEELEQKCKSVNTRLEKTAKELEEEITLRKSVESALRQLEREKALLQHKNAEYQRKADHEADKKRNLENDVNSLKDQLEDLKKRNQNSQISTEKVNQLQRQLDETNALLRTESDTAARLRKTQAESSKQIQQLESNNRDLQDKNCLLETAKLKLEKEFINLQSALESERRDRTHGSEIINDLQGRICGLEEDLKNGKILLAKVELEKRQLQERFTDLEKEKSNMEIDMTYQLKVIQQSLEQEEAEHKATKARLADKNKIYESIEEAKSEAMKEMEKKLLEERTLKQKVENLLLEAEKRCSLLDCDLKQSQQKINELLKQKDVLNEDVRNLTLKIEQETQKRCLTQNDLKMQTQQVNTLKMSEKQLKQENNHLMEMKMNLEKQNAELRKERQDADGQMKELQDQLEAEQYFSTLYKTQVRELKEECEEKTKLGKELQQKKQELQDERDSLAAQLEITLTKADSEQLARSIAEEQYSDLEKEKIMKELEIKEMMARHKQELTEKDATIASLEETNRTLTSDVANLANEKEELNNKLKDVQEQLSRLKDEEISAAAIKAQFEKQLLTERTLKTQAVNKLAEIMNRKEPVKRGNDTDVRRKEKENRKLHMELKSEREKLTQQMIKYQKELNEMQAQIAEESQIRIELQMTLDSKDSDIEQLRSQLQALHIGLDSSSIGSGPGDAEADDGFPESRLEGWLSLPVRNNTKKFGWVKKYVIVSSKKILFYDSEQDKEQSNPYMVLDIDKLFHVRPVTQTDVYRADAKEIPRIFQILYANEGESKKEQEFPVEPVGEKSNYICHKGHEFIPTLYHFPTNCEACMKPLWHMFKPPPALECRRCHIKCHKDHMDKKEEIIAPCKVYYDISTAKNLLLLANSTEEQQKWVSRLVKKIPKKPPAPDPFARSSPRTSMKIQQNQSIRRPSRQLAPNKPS
row,Structure (SMILES),IC50
1,COCCNC(=O)C(N)c1ccc(C(=O)Nc2ccncc2)cc1 (stereo not drawn),500 to 5000 nM
2,COc1ccccc1CNC(=O)C(N)c1ccc(C(=O)Nc2ccncc2)cc1 (stereo not drawn),< 500 nM
3,NC(CC(=O)N1CCSC1)c1ccc(C(=O)Nc2ccncc2)cc1 (stereo not drawn),< 500 nM
4,CN(CC(N)c1ccc(C(=O)Nc2ccncc2)cc1)S(=O)(=O)c1ccccc1 (stereo not drawn),500 to 5000 nM
5,CC1CCN(C(=O)C(N)c2ccc(C(=O)Nc3ccncc3)cc2)CC1 (stereo not drawn),< 500 nM
6,NC(CC(=O)N1CCN(Cc2ccccc2F)CC1)c1ccc(C(=O)Nc2ccncc2)cc1 (stereo not drawn),< 500 nM
7,NC(C(=O)NCc1ccccn1)c1ccc(C(=O)Nc2ccncc2)cc1 (stereo not drawn),500 to 5000 nM
8,N[C@H](CC(=O)N1CCC[C@@H]1c1cccc(F)c1)c1ccc(C(=O)Nc2ccncc2)cc1,< 500 nM
9,COc1ccc(S(=O)(=O)N(C)CC(N)c2ccc(C(=O)Nc3ccncc3)cc2)cc1 (stereo not drawn),< 500 nM
10,N[C@H](CC(=O)N1CCC[C@H]1c1cccc(F)c1)c1ccc(C(=O)Nc2ccncc2)cc1,< 500 nM
11,NC(CC(=O)N1CCCCC1c1cccc2ccccc12)c1ccc(C(=O)Nc2ccncc2)cc1 (stereo not drawn),< 500 nM
12,NC(CC(=O)N1CCC(c2c[nH]c3ccccc23)CC1)c1ccc(C(=O)Nc2ccncc2)cc1 (stereo not drawn),< 500 nM
13,NC(CNS(=O)(=O)c1cccs1)c1ccc(C(=O)Nc2ccncc2)cc1 (stereo not drawn),< 500 nM
14,NC(CNS(=O)(=O)c1cccc(-c2ccccc2)c1)c1ccc(C(=O)Nc2ccncc2)cc1 (stereo not drawn),500 to 5000 nM
15,NC(CC(=O)N1CCCCC1c1ccccc1)c1ccc(C(=O)Nc2ccncc2)cc1 (stereo not drawn),< 500 nM
16,CN(CCO)C(=O)C(N)c1ccc(C(=O)Nc2ccncc2)cc1 (stereo not drawn),500 to 5000 nM
17,COc1ccc(CN2CCN(C(=O)C(N)c3ccc(C(=O)Nc4ccncc4)cc3)CC2)cc1 (stereo not drawn),500 to 5000 nM
18,NC(C(=O)N1CCOCC1)c1ccc(C(=O)Nc2ccncc2)cc1 (stereo not drawn),< 500 nM
19,NC(C(=O)N1CC=C(c2ccc(F)cc2)CC1)c1ccc(C(=O)Nc2ccncc2)cc1 (stereo not drawn),500 to 5000 nM
20,NC(CC(=O)N1CCCC1c1ccc(Cl)cc1)c1ccc(C(=O)Nc2ccncc2)cc1 (stereo not drawn),< 500 nM
21,NC(CC(=O)N1CCc2c([nH]c3ccccc23)C1c1cccc(Cl)c1)c1ccc(C(=O)Nc2ccncc2)cc1 (stereo not drawn),500 to 5000 nM
22,CCS(=O)(=O)NCC(N)c1ccc(C(=O)Nc2ccncc2)cc1 (stereo not drawn),< 500 nM
23,CC(C)C(C)NC(=O)C(N)c1ccc(C(=O)Nc2ccncc2)cc1 (stereo not drawn),500 to 5000 nM
24,COc1ccc(CN2CCN(C(=O)CC(N)c3ccc(C(=O)Nc4ccncc4)cc3)CC2)cc1 (stereo not drawn),500 to 5000 nM
25,COc1ccc(OC)c(S(=O)(=O)NCC(N)c2ccc(C(=O)Nc3ccncc3)cc2)c1 (stereo not drawn),< 500 nM
26,NC(CC(=O)N1CCC(Cc2ccccc2)CC1)c1ccc(C(=O)Nc2ccncc2)cc1 (stereo not drawn),< 500 nM

row,Structure (SMILES),IC50
1,NC(CC(=O)N1CCC(O)(c2ccccc2)CC1)c1ccc(C(=O)Nc2ccncc2)cc1 (stereo not drawn),< 500 nM
2,NC(CC(=O)N1CCc2c([nH]c3ccccc23)C1)c1ccc(C(=O)Nc2ccncc2)cc1 (stereo not drawn),< 500 nM
3,CC(C)N1CCN(C(=O)C(N)c2ccc(C(=O)Nc3ccncc3)cc2)CC1 (stereo not drawn),500 to 5000 nM
4,COc1ccc(S(=O)(=O)NCC(N)c2ccc(C(=O)Nc3ccncc3)cc2)cc1 (stereo not drawn),< 500 nM
5,CS(=O)(=O)NCCNC(=O)C(N)c1ccc(C(=O)Nc2ccncc2)cc1 (stereo not drawn),500 to 5000 nM
6,NC(CC(=O)N1Cc2ccccc2C1)c1ccc(C(=O)Nc2ccncc2)cc1 (stereo not drawn),< 500 nM
7,NC(CC(=O)N1CCCC1c1cc(F)ccc1F)c1ccc(C(=O)Nc2ccncc2)cc1 (stereo not drawn),< 500 nM
8,NC(CC(=O)N1CCN(Cc2ccc(F)cc2)CC1)c1ccc(C(=O)Nc2ccncc2)cc1 (stereo not drawn),< 500 nM
9,NC(CC(=O)N1CCCC(CO)C1)c1ccc(C(=O)Nc2ccncc2)cc1 (stereo not drawn),< 500 nM
10,COc1ccc(C2c3[nH]c4ccccc4c3CCN2C(=O)CC(N)c2ccc(C(=O)Nc3ccncc3)cc2)cc1Br (stereo not drawn),500 to 5000 nM
11,NC(C(=O)NCc1ccccc1)c1ccc(C(=O)Nc2ccncc2)cc1 (stereo not drawn),< 500 nM
12,NC(CC(=O)N1CC=C(c2ccc(F)cc2)CC1)c1ccc(C(=O)Nc2ccncc2)cc1 (stereo not drawn),< 500 nM
13,CCC(NC(=O)C(N)c1ccc(C(=O)Nc2ccncc2)cc1)c1ccccc1 (stereo not drawn),< 500 nM
14,NC(C(=O)N1CCN(CCO)CC1)c1ccc(C(=O)Nc2ccncc2)cc1 (stereo not drawn),500 to 5000 nM
15,CN(C)CCNC(=O)C(N)c1ccc(C(=O)Nc2ccncc2)cc1 (stereo not drawn),500 to 5000 nM
16,Cc1nn(C)c(Cl)c1S(=O)(=O)NCC(N)c1ccc(C(=O)Nc2ccncc2)cc1 (stereo not drawn),500 to 5000 nM
17,NC(CC(=O)N1CCN(C(=O)c2ccco2)CC1)c1ccc(C(=O)Nc2ccncc2)cc1 (stereo not drawn),< 500 nM
18,NC(C(=O)NCc1ccco1)c1ccc(C(=O)Nc2ccncc2)cc1 (stereo not drawn),< 500 nM
19,NC(C(=O)NC1CCN(Cc2ccccc2)CC1)c1ccc(C(=O)Nc2ccncc2)cc1 (stereo not drawn),500 to 5000 nM
20,NC(c1ccc(C(=O)Nc2ccncc2)cc1)C1CCCN1S(=O)(=O)c1cccc(Cl)c1 (stereo not drawn),500 to 5000 nM
21,COc1ccc(S(=O)(=O)N2CCCC2C(N)c2ccc(C(=O)Nc3ccncc3)cc2)cc1 (stereo not drawn),500 to 5000 nM
22,CCCCNNC(=O)C(N)c1ccc(C(=O)Nc2ccncc2)cc1 (stereo not drawn),< 500 nM
23,COc1cccc(C2CCCCN2C(=O)CC(N)c2ccc(C(=O)Nc3ccncc3)cc2)c1 (stereo not drawn),< 500 nM
24,CC(NC(=O)C(N)c1ccc(C(=O)Nc2ccncc2)cc1)c1ccccc1 (stereo not drawn),< 500 nM
25,NC(C(=O)N1CCc2ccccc2C1)c1ccc(C(=O)Nc2ccncc2)cc1 (stereo not drawn),< 500 nM
26,NC(CC(=O)N1CCCC1c1ccc(F)cc1)c1ccc(C(=O)Nc2ccncc2)cc1 (stereo not drawn),< 500 nM

row,Structure (SMILES),IC50
1,NC(C(=O)N1CCN(c2ccccc2)CC1)c1ccc(C(=O)Nc2ccncc2)cc1 (stereo not drawn),500 to 5000 nM
2,NC(C(=O)NCCn1ccnc1)c1ccc(C(=O)Nc2ccncc2)cc1 (stereo not drawn),500 to 5000 nM
3,NC(c1ccc(C(=O)Nc2ccncc2)cc1)C1CCCN1S(=O)(=O)c1ccc(F)cc1 (stereo not drawn),500 to 5000 nM
4,CN(CC(N)c1ccc(C(=O)Nc2ccncc2)cc1)S(=O)(=O)c1ccc(F)cc1 (stereo not drawn),500 to 5000 nM
5,CN(CC(N)c1ccc(C(=O)Nc2ccncc2)cc1)S(=O)(=O)c1ccccc1F (stereo not drawn),500 to 5000 nM
6,N[C@@H](CC(=O)N1CCC[C@H]1c1cccc(F)c1)c1ccc(C(=O)Nc2ccncc2)cc1,< 500 nM
7,N[C@@H](C(=O)NCc1ccccc1)c1ccc(C(=O)Nc2ccncc2)cc1,500 to 5000 nM
8,NC(CC(=O)N1CCCC1c1ccc(Cl)c(Cl)c1)c1ccc(C(=O)Nc2ccncc2)cc1 (stereo not drawn),< 500 nM
9,NC(C(=O)NCC1CCCO1)c1ccc(C(=O)Nc2ccncc2)cc1 (stereo not drawn),500 to 5000 nM
10,Cc1cccc(S(=O)(=O)NCC(N)c2ccc(C(=O)Nc3ccncc3)cc2)c1 (stereo not drawn),< 500 nM
11,NC(CNS(=O)(=O)c1ccccc1F)c1ccc(C(=O)Nc2ccncc2)cc1 (stereo not drawn),< 500 nM
12,NC(CNS(=O)(=O)c1cccc2nsnc12)c1ccc(C(=O)Nc2ccncc2)cc1 (stereo not drawn),< 500 nM
13,NC(CC(=O)N1CCOCC1)c1ccc(C(=O)Nc2ccncc2)cc1 (stereo not drawn),< 500 nM
14,COc1ccc(NC(=O)C(N)c2ccc(C(=O)Nc3ccncc3)cc2)cc1 (stereo not drawn),< 500 nM
15,NC(c1ccc(C(=O)Nc2ccncc2)cc1)C1CCCN1S(=O)(=O)c1cccc(F)c1 (stereo not drawn),500 to 5000 nM
16,NC(CC(=O)N1CCOCC1c1ccccc1)c1ccc(C(=O)Nc2ccncc2)cc1 (stereo not drawn),< 500 nM
17,CC[C@H](NC(=O)C(N)c1ccc(C(=O)Nc2ccncc2)cc1)c1ccccc1 (stereo partly drawn),500 to 5000 nM
18,CC1CC(C)CN(C(=O)C(N)c2ccc(C(=O)Nc3ccncc3)cc2)C1 (stereo not drawn),< 500 nM
19,NC(CC(=O)N1CCCC1c1cccc(F)c1)c1ccc(C(=O)Nc2ccncc2)cc1 (stereo not drawn),< 500 nM
20,CCCCCCCCS(=O)(=O)NCC(N)c1ccc(C(=O)Nc2ccncc2)cc1 (stereo not drawn),500 to 5000 nM
21,NC(CNS(=O)(=O)c1cccc2ccccc12)c1ccc(C(=O)Nc2ccncc2)cc1 (stereo not drawn),< 500 nM
22,NC(CC(=O)N1CCCC1c1ccc(F)cc1F)c1ccc(C(=O)Nc2ccncc2)cc1 (stereo not drawn),< 500 nM
23,NC(C(=O)NC1Cc2ccccc2C1)c1ccc(C(=O)Nc2ccncc2)cc1 (stereo not drawn),< 500 nM
24,NC(CC(=O)N1CCCC1c1cccc(Cl)c1)c1ccc(C(=O)Nc2ccncc2)cc1 (stereo not drawn),< 500 nM
25,NC(CC(=O)N1CCCC2CCCCC21)c1ccc(C(=O)Nc2ccncc2)cc1 (stereo not drawn),< 500 nM
26,NC(CC(=O)N1CCOCC1c1ccc(F)cc1)c1ccc(C(=O)Nc2ccncc2)cc1 (stereo not drawn),< 500 nM

row,Structure (SMILES),IC50
1,NC(CNS(=O)(=O)c1ccc(Oc2ccccc2)cc1)c1ccc(C(=O)Nc2ccncc2)cc1 (stereo not drawn),500 to 5000 nM
2,Cc1ccccc1S(=O)(=O)NCC(N)c1ccc(C(=O)Nc2ccncc2)cc1 (stereo not drawn),< 500 nM
3,CC(C)N1CCN(C(=O)CC(N)c2ccc(C(=O)Nc3ccncc3)cc2)CC1 (stereo not drawn),< 500 nM
4,CCCS(=O)(=O)NCC(N)c1ccc(C(=O)Nc2ccncc2)cc1 (stereo not drawn),< 500 nM
5,NC(C(=O)N1CCC(Cc2ccccc2)CC1)c1ccc(C(=O)Nc2ccncc2)cc1 (stereo not drawn),500 to 5000 nM
6,NC(C(=O)NCc1cccc(Cl)c1)c1ccc(C(=O)Nc2ccncc2)cc1 (stereo not drawn),< 500 nM
7,NC(CC(=O)N1CCOCC1c1ccc(Cl)cc1)c1ccc(C(=O)Nc2ccncc2)cc1 (stereo not drawn),< 500 nM
8,NC(C(=O)N1CCC(c2ccccc2)CC1)c1ccc(C(=O)Nc2ccncc2)cc1 (stereo not drawn),500 to 5000 nM
9,CN(CC(N)c1ccc(C(=O)Nc2ccncc2)cc1)S(=O)(=O)c1ccccc1Cl (stereo not drawn),500 to 5000 nM
10,NC(C(=O)Nc1ccccc1)c1ccc(C(=O)Nc2ccncc2)cc1 (stereo not drawn),500 to 5000 nM
11,NC(C(=O)N1CCCC(CO)C1)c1ccc(C(=O)Nc2ccncc2)cc1 (stereo not drawn),500 to 5000 nM
12,CN(Cc1ccccc1)C(=O)C(N)c1ccc(C(=O)Nc2ccncc2)cc1 (stereo not drawn),< 500 nM
13,NC(CC(=O)N1CCc2ccc(F)cc2C1)c1ccc(C(=O)Nc2ccncc2)cc1 (stereo not drawn),< 500 nM
14,NC(CC(=O)N1CCc2c(Cl)cccc2C1)c1ccc(C(=O)Nc2ccncc2)cc1 (stereo not drawn),< 500 nM
15,NC(C(=O)NCCn1cccn1)c1ccc(C(=O)Nc2ccncc2)cc1 (stereo not drawn),500 to 5000 nM
16,NC(CC(=O)N1CCC(c2nc3ccccc3o2)CC1)c1ccc(C(=O)Nc2ccncc2)cc1 (stereo not drawn),< 500 nM
17,Cc1noc(C)c1S(=O)(=O)NCC(N)c1ccc(C(=O)Nc2ccncc2)cc1 (stereo not drawn),< 500 nM
18,CC1CCC(NC(=O)C(N)c2ccc(C(=O)Nc3ccncc3)cc2)CC1 (stereo not drawn),500 to 5000 nM
19,NC(CC(=O)N1CCc2ccc(Cl)cc2C1)c1ccc(C(=O)Nc2ccncc2)cc1 (stereo not drawn),< 500 nM
20,N[C@@H](CC(=O)N1CCC[C@@H]1c1cccc(F)c1)c1ccc(C(=O)Nc2ccncc2)cc1,< 500 nM
21,NC(C(=O)NCc1ccncc1)c1ccc(C(=O)Nc2ccncc2)cc1 (stereo not drawn),500 to 5000 nM
22,CCC(C)(C)NC(=O)C(N)c1ccc(C(=O)Nc2ccncc2)cc1 (stereo not drawn),500 to 5000 nM
23,NC(CNS(=O)(=O)c1ccc(F)cc1)c1ccc(C(=O)Nc2ccncc2)cc1 (stereo not drawn),< 500 nM
24,CONC(=O)C(N)c1ccc(C(=O)Nc2ccncc2)cc1 (stereo not drawn),500 to 5000 nM
25,CCNC(=O)C(N)c1ccc(C(=O)Nc2ccncc2)cc1 (stereo not drawn),500 to 5000 nM

# From the Kinase Knowledgebase extract (Sharma et al. 2016)
